SMILES strings stand for the structures.

What is called Kd is the free concentration of one partner at which half of the binding sites on the other are occupied at equilibrium, for simple one-to-one binding. Read a low Kd as higher affinity.

The experiment concerns the target T1, ctdWDR91 (Homo sapiens, UniProt A4D1P6).
T1 sequence (A4D1P6 392-747): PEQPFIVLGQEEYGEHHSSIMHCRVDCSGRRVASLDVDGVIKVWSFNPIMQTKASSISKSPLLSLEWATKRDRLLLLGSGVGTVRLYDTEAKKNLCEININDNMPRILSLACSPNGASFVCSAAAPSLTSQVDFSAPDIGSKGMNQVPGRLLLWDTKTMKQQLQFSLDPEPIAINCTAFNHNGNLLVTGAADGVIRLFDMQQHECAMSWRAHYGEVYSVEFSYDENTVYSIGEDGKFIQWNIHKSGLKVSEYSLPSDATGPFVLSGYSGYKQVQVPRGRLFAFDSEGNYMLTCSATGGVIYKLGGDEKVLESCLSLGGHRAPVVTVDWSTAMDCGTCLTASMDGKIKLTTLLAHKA
Put plainly: biochemical.
Turning to `O=C(Cc1cn2ccsc2n1)NC1(c2ccc(Cl)cc2)CC1` [MRGG044790a], the dissociation constant (Kd) is more than 45 µM.
The compound `Cc1cc(N2CCC(COC(=O)C3COc4ccccc43)C2)ccc1F` (stereo not drawn) [MRGG045298a] showed a Kd of more than 45 µM.
To `CC(=O)N1CCCC(C(=O)N(C)CCc2ccc(F)cc2)C1` (stereo not drawn) [MRGG044837a] belongs more than 45 µM; to `O=C(NC(CO)C(O)c1ccc(Cl)cc1)c1ccc2ccncc2c1` (stereo not drawn) [MRGG045273a], more than 45 µM; to `COC(=O)c1ccc(C(=O)N2C3CCC2CN(C)C3)cn1` [MRGG045263a], more than 45 µM.
To `C[C@@H]1CN(S(=O)(=O)c2ccc3ncsc3c2)[C@@H](C)CN1C` [MRGG045304a] belongs more than 45 µM; to `CC(C)(C)OC(=O)N1CCC2(CC(N)c3ccccc3O2)C1` (stereo not drawn) [MRGG044817a], more than 45 µM; to `N#Cc1cc(C#N)cc(CNc2cccc(CN3CCCC3=O)c2)c1` [MRGG045333a], more than 45 µM.
For `CN(C)C(=O)CC1CCN(C(=O)c2cc3cc(O)c(O)cc3s2)CC1` [MRGG045286a] the value was more than 45 µM.
As for `CNC(=O)c1ccc(NC2CC3CCC(C2)N3C)nc1` (stereo not drawn) [MRGG045318a], the Kd was more than 45 µM.
On to `N#Cc1cccc(CN(C=O)C2CC3(CCCC3)Oc3ccccc32)c1` (stereo not drawn) [MRGG045284a], for which the Kd was more than 45 µM.
For `Cc1ccccc1CN1CC(=O)N(CC2CCN(c3ccc(F)cc3)C2)C1=O` (stereo not drawn) [MRGG045291a] the value was more than 45 µM.
For `CCN1CCN(c2ccc(C(=O)N(C)c3cccc(C)c3)cc2F)CC1` [MRGG045277a] the value was more than 45 µM; for `CN(C(=O)Cc1coc2ccccc12)C1CCN(C(=O)OC(C)(C)C)C1` (stereo not drawn) [MRGG045302a], more than 45 µM.
For `CC(C)(C)OC(=O)N1CCCC1C1CCN(C2CC2)C1` (stereo not drawn) [MRGG045334a] the value was more than 45 µM; for `CCN(CC(=O)NCc1cc(Cl)c(Cl)cc1Cl)C1CC1` [MRGG045269a], more than 45 µM; for `CN(CCCc1ccccc1)C(=O)c1cn2ccnc2s1` [MRGG045270a], more than 45 µM.
In turn, `O=[N+]([O-])c1ccc(N2CCC(CNc3ccccn3)C2)c2ccncc12` (stereo not drawn) [MRGG044831a] registered a Kd of more than 45 µM.
For `O=C(Cc1ccc(O)c(O)c1)NC(CC1CC1)c1ccc(Cl)cc1` (stereo not drawn) [MRGG045306a] the value was more than 45 µM; for `CN(CCc1ccccc1)C(=O)c1nc2sccn2c1CN1CC[C@H](O)C1` [MRGG044785a], more than 45 µM.
For the compound `Cn1ccc(C(=O)Nc2ccc(N3CCCCC3)c3ccncc23)cc1=O` [MRGG044838a], the Kd is more than 45 µM.
For `Cc1c(C(=O)NCc2n[nH]c(N)n2)n(C)c2ccc(F)cc12` [MRGG044784a] the value was more than 45 µM; for `CC(NC(=O)c1ccc2c(c1)NC(=O)CO2)c1cccc(Cl)c1` (stereo not drawn) [MRGG044791a], 36 µM; for `C[C@H](NC1CCN(C2CC2)C1)c1cccc2cnccc12` (stereo partly drawn) [MRGG045313a], more than 45 µM.
For `O=C(NCCc1ccc(O)c(O)c1)Nc1cccc(N2CCNC2=O)c1` [MRGG044825a] the value was more than 45 µM; for `CC1(CNC2CCN(C3CC3)C2)CCN(C(=O)OC(C)(C)C)C1` (stereo not drawn) [MRGG045285a], more than 45 µM; for `NC(=O)C1=NOC(CNC(=O)NCC2CCN(c3ccccc3)C2)C1` (stereo not drawn) [MRGG044840a], more than 45 µM.
To `c1ccc2oc(-c3n[nH]cc3CNCC3CCN(C4CC4)C3)cc2c1` (stereo not drawn) [MRGG044801a] belongs more than 45 µM; to `CN(CCc1ccccc1)C(=O)Cc1ccc(O)c(O)c1` [UBGG028860b], more than 45 µM.
As for `CS(=O)(=O)N1CCC(CN(Cc2cccc(F)c2)C2CC2)C1` (stereo not drawn) [MRGG045308a], the equilibrium dissociation constant (Kd) was more than 45 µM.
For `CC1CC(NC(=O)c2c[nH]c3cccc(Cl)c23)CN1C1CC1` (stereo not drawn) [MRGG045323a] the value was more than 45 µM; for `O=C(c1ccccc1)N1CCC(CN(C2CC2)C2CC2)C1` (stereo not drawn) [MRGG045320a], more than 45 µM.
To `CCC(NC(=O)c1ccc(S(=O)(=O)NC2CC2)cc1)c1ccc(Br)cc1` (stereo not drawn) [MRGG044824a] belongs more than 45 µM; to `NC(=O)NC(CC(=O)Nc1ccc(N2CCCC2)cc1)c1ccc(Cl)cc1` (stereo not drawn) [XSGG048242e], more than 45 µM; to `O=C1NCC2(CC2)C(=O)N1CC1CCN(c2cccc(Br)c2)C1` (stereo not drawn) [MRGG045328a], more than 45 µM.
For `COc1cccc(N2CCC(CNC(=O)c3cccc(F)c3)C2)c1` (stereo not drawn) [MRGG044811a] the value was more than 45 µM; for `CC(NC(=O)CN(C)C1CCN(C2CC2)C1)c1ccc(Br)cc1` (stereo not drawn) [MRGG045280a], more than 45 µM; for `CC(C)(C)OC(=O)NCc1ccc(C(=O)NC2CCN(c3ccc(Cl)cc3)C2)cc1` (stereo not drawn) [MRGG045288a], more than 45 µM.
`CC1CCN(c2ccc(C(=O)N3c4ccccc4CC3CO)cc2)C1` (stereo not drawn) [MRGG044805a] came in with a Kd of more than 45 µM.
To `C[C@H]1C(=O)N(CCN2CCc3ccccc32)C(=O)N1C` [MRGG045307a] belongs more than 45 µM; to `CN1C[C@@H]2CN(C(=O)c3cc(Br)c([N+](=O)[O-])[nH]3)C[C@@H]2C1` [MRGG045266a], more than 45 µM; to `CN(Cc1ccc(-c2ccc(Cl)cc2)o1)C(=O)CN1C(=O)c2cccnc2C1=O` [MRGG045274a], more than 45 µM.
For `COc1cc(C)nc(NC(=O)c2ccoc2C2CC2)n1` [MRGG044772b] the value was more than 45 µM; for `CC1CN(C2CC2)CC1NC(=O)CCCCc1c[nH]c2ccccc12` (stereo not drawn) [MRGG045292a], more than 45 µM; for `O=C(NCc1ccc2c(c1)OCO2)c1ccc2snnc2c1` [MRGG044780a], 17 µM.
To `COCC1CCN(c2ccc(C(=O)N3C[C@@H]4C[C@H]3CN4C3CC3)cc2)C1` (stereo partly drawn) [MRGG045264a] belongs more than 45 µM; to `NC(=O)[C@]12CCOC[C@H]1CN(C(=O)c1cccc(N3CCCC3)c1)C2` [MRGG044792a], more than 45 µM.
Consider `CN(CCc1ccccc1F)C(=O)c1cnc2sccn12` [MRGG045268a], for which the Kd is more than 45 µM.
To `CN1CC(N(C)C(=O)CCc2ccc3cc(O)c(O)cc3c2)C1` [MRGG045336a] belongs more than 45 µM; to `CN1CCC2(CCCN(C(=O)c3cccnc3C(N)=O)C2)C1` (stereo not drawn) [MRGG045271a], more than 45 µM.
For `O=c1[nH]nc2n1CCN(Cc1ccccc1CN1CCn3c(n[nH]c3=O)C1)C2` [MRGG045331a] the value was more than 45 µM.
For `CN(C1CCN(C2CC2)C1)S(=O)(=O)c1cccc2ccoc12` (stereo not drawn) [MRGG045312a] the value was more than 45 µM; for `CN(Cc1ccc(Cl)c(Cl)c1)C(=O)COC(=O)C=Cc1ccc(O)c(O)c1` [MRGG045262a], more than 45 µM.
For the compound `O=C(NCc1ccc2nonc2c1)c1cn2ccsc2n1` [MRGG044782a], the Kd was more than 45 µM.
To `O=[N+]([O-])c1ccc(N2CCCC2)cc1NCc1ccc(Cl)cc1` [MRGG044778a] belongs more than 45 µM.
To `Cc1ccc(C(=O)N(C)C)cc1-c1cccc(N2CCCC2)c1` [MRGG045315a] belongs more than 45 µM; to `N#Cc1ccc(NCc2cc(Cl)cc(C(F)(F)F)c2)cn1` [MRGG044806a], more than 45 µM; to `O=c1c2c(F)cccc2ncn1CC1CCN(C2CC2)C1` (stereo not drawn) [MRGG044781a], more than 45 µM.
For `COC(=O)c1ccccc1NC(=O)c1ccc2nnsc2c1` [MRGG044841a] the value was more than 45 µM; for `Cc1cc(N2CCN(C(=O)c3cc(F)c(F)cc3[N+](=O)[O-])CC2)c(F)cc1[N+](=O)[O-]` [MRGG044777a], more than 45 µM; for `COc1ccnc(N(C)C(=O)CCn2cccc2)n1` [MRGG045324a], more than 45 µM.
In the case of `CN1CCOC(C(NC(=O)c2cncc3cnccc23)c2ccc(Cl)cc2)C1` (stereo not drawn) [MRGG045276a], the Kd is more than 45 µM.
To `N#Cc1ccc2c(c1)CCCCC2NCC1CCN(C2CC2)C1` (stereo not drawn) [MRGG045300a] belongs more than 45 µM; to `Fc1ccc(N2CCC(CNc3ncnc4ccncc34)C2)cc1F` (stereo not drawn) [MRGG044795a], more than 45 µM; to `CC1CN(C2CC2)CC1NC1CCN(C2CC2)CC1` (stereo not drawn) [MRGG045338a], more than 45 µM.
`CC1CN(C2CC2)CC1NCc1ccccc1-n1ccnc1` (stereo not drawn) [MRGG044802a] showed a Kd of more than 45 µM.
For `COc1ccc(CC(=O)N(C)Cc2cccc(N3CCCC3)c2)cc1[N+](=O)[O-]` [MRGG045329a] the value was more than 45 µM; for `Cc1cc(NCC2CCN(C3CC3)C2)nc(-c2cccc([N+](=O)[O-])c2)n1` (stereo not drawn) [MRGG044829a], more than 45 µM.
To `CC1CN(C2CC2)CC1NS(=O)(=O)c1cnn(-c2ccccc2)c1` (stereo not drawn) [MRGG044803a] belongs more than 45 µM; to `O=C(NCc1ccc(N2CCCC2)cc1)c1ccc(F)cc1` [XSGG119722b], more than 45 µM; to `Cc1cc(O)c(O)cc1C(=O)NC1(c2cccc(C#N)c2)CCC1` [MRGG045322a], more than 45 µM.
For `O=C1Cc2ccc(C(=O)NC3Cc4ccccc4C3O)cc2N1` (stereo not drawn) [MRGG044800a] the value was more than 45 µM; for `COc1cccc([C@@H]2[C@@H](NC3CCN(C4CC4)C3)CCN2C2CC2)c1` (stereo partly drawn) [MRGG045319a], more than 45 µM; for `CCC(NC(=O)CN1CCn2cncc2C1)c1ccc(Cl)cc1` (stereo not drawn) [MRGG044822a], more than 45 µM.
`NC12CCCC1CN(C(=O)c1nccc3cccnc13)C2` (stereo not drawn) [MRGG044815a] came in with an equilibrium dissociation constant (Kd) of more than 45 µM.
For `N#Cc1cn(CC2CCN(c3ccccc3)C2)c(=O)[nH]c1=O` (stereo not drawn) [MRGG044810a] the value was more than 45 µM.
To `CC(NC(=O)CN(C)Cc1ccc(Cl)c(Cl)c1)c1ccccc1` (stereo not drawn) [MRGG044839a] belongs more than 45 µM; to `O=C(NC1CCN(c2cccc(Cl)c2)C1)c1cccc2c1OCO2` (stereo not drawn) [MRGG044807a], more than 45 µM; to `CCOc1ccc2c(c1)C(NC(=O)c1cn3ccnc3s1)CCO2` (stereo not drawn) [MRGG044834a], more than 45 µM.
For `O=C(NC1CC2(CCCC2)Oc2ccccc21)c1cnc2ccccn2c1=O` (stereo not drawn) [MRGG044783a] the value was more than 45 µM; for `CN1CCC(O)(CNC(=O)c2cnc3cc[nH]c3c2)C1` (stereo not drawn) [MRGG045295a], more than 45 µM.

The values above are taken from doi:10.1101/2023.08.21.552681v1 (biorxiv, 2023).
